Seven compounds from patent US5817624A, “Permeation enhancer compositions for increased absorption of therapeutic proteins through the colonic membrane” (Alza Corporation, priority 1995, dated 1998) can be followed below.

The series deals with fasted anesthetized Sprague-Dawley male rats. As to conditions: for % Maximum Decrease 0-60 mins (blood glucose): sodium bovine insulin 0.5 mg/kg, 1 mL peanut oil, intracolonic bolus, n = 3-4. An excerpt:
An animal model commonly known as the "intracolonic ligated model" was employed for testing formulations. Surgical preparation of a fasted anesthetized 0.3-0.5 kg Sprague-Dawley male rats proceeded as follows. A segment of proximal colon was isolated and the colon was flushed of fecal materials. The segment was ligated at both ends while a catheter was placed in the lumen and exteriorized above the skin for delivery of test formulation. The colonic contents were flushed out and the colon was returned to the abdomen of the animal. Depending on the experimental set up, the test formulation was added after the segment was filled with 1 mL/kg of 20 mM sodium phosphate buffer, pH 7.4, to more accurately simulate the actual colon environment in a clinical situation.
Rats were allowed to equilibrate for approximately 1 hour after surgical preparation and prior to exposure to each test formulation. Immediately prior to test solution administration, a 0.3-0.5 mL blood sample was taken from the jugular catheter of the rats and analyzed for glucose content using an Ames GlucometerM® blood glucose meter utilizing Glucostix® reagent strips. Withdrawn blood was replaced with an equal volume of heparinized Ringer's. Sodium bovine insulin was formulated to be delivered at a dose of 0.5 mg/kg body weight. Initially, all candidate enhancers were tested at a concentration of 300 mM. […] The solutes (enhancer and insulin) were suspended in 1 mL peanut oil (except where noted) and mixed using a vortex mixer. Test solutions were vortexed immediately prior to aspiration into individual delivery syringes.
After determination of baseline blood glucose levels, the test solution was administered as an intracolonic bolus and delivered at 1 ml/kg adjusting for either the 100 μl or 250 μl dead volume of the colonic catheter. Blood samples obtained from the jugular catheter were taken at 0, 5, 15, 30, 60, 120, 180 and 240 minutes and analyzed for blood glucose concentration. At the end of the 4 hour test period, the rats were euthanized with an overdose of pentobarbital. Colonic segments from each rat were excised and opened longitudinally along the anti-mesenteric border. Each segment was observed macroscopically for irritation and any abnormality noted. The excised colons were placed on graph paper and measured to approximate colonic surface area. Blood glucose dynamics are reported as the percent change from initial blood glucose levels.
Rats were prepared as described in EXAMPLE 1. […] The open symbols denote the formulations delivered in oil whereas the closed symbol denotes the formulation without oil.

Structures are written as SMILES. Values joined by “and” are separate entries in the source; they are usually repeats but may differ in a detail not shown here. Equal entries are not always repeated. Where two headings read alike, the source gives them in different places.

For the compound `O=C([O-])c1cc(O)ccc1O.[Na+]` [2,5-Dihydroxybenzoic acid, Na salt], for the setting “enhancer 300 mM”, the “% Maximum Decrease 0-60 mins (blood glucose)” value (“% Maximum Decrease 0-60 mins” below) is 1% and 9%.
Take `Nc1ccc(C(=O)[O-])c(O)c1.[Na+]` [4-Amino salicylic acid, Na salt]: the “% Maximum Decrease 0-60 mins” value (enhancer 300 mM) stood at 10%.
Consider `Nc1ccc(O)c(C(=O)[O-])c1.[Na+]` [5-Amino salicylic acid, Na salt], for which the “% Maximum Decrease 0-60 mins” value came out at 13% (enhancer 100 mM) and 13% (enhancer 300 mM).
On to `COc1ccc(O)c(C(=O)[O-])c1.[Na+]` [5-Methoxysalicylic acid, Na salt], for which the “% Maximum Decrease 0-60 mins” value (enhancer 300 mM) amounted to 9%.
Take `O=C([O-])c1ccccc1.[Na+]` [Benzoic acid, Na salt]: under “enhancer 300 mM”, the “% Maximum Decrease 0-60 mins” value is given as 0%.
`O=C([O-])c1ccccc1O.[Na+]` [Na Salicylate, sodium salicylate]: the rats that died is, setting by setting: (enhancer 250 mM with insulin 0.5 mg/kg in 1/8 mL peanut oil) 2/4; (enhancer 600 mM with insulin 0.5 mg/kg and peanut oil, death due to low blood glucose levels) 4/4. Moreover, the “effect on blood glucose levels over a 4 hour period” value (enhancer 300 mM formulated without insulin) is listed as “no effect”. Moreover, for the setting “enhancer 300 mM with sodium bovine insulin (0.5 mg/kg) and peanut oil”, the “decrease in fasting blood glucose levels from pre-exposure levels (significance)” value is “significant decrease”.
On to `[Cl-].[Na+]` [NaCl], for which, under “enhancer 300 mM”, the “% Maximum Decrease 0-60 mins” value is 2%.
